Like-named read-outs stand apart in the source and are kept apart here.
How the values were obtained:
[1] = test system: mouse spleen cells; test: Proliferation inhibition assay for mouse spleen cells; type: cell-based; settings: 72 h, 3 days, Alamar Blue
Procedure, shortened: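 C57BL/6N female mouse spleen cells (2×10^6 cells/mL) stimulated with Con A (3 μg/mL), LPS (100 μg/mL) or anti-mouse IgM (100 μg/mL) alongside serially diluted compounds, 3 days at 37° C, 5% CO2. Alamar Blue added for a further day; fluorescence read at ex 530/em 590 nm.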

[2] = test system: human peripheral blood mononuclear cells; test: Activation inhibition assay for human peripheral blood mononuclear cells (CD40L, CD69 expression); type: cell-based; settings: PBMC, anti-CD3 + anti-CD28, 6 hours, flow cytometry
Method: In accordance with the method of Assay Example 2, PBMC (2×10^6 cells/mL) was isolated from human peripheral blood, suspended in RPMI 1640 medium (containing 10% fetal bovine serum, 10 mM HEPES, 1 mM pyruvic acid, and 4.5 g/L glucose), and seeded in wells of a 96 well plate at 0.225 mL per well. The test substances were added to respective wells, and then an anti-CD3 antibody (2 μg/mL) and an anti-CD28 antibody (1 μg/mL) were added. Then, after incubation under conditions of carbon dioxide 5% at a temperature 37° C. for 6 hours, the expressions of CD40L and CD69, activation markers, were analysed by flow cytometry. As a result, when the cells were stimulated by both an anti-CD3 antibody and an anti-CD28 antibody, CD40L was expressed on 14.4% of PBMC, which was also CD4 positive. However, the proportion of the cells which expressed CD40L decreased when the cells had been treated with test substances (Compound 4: 4.9%; Compound 20: 3.7%, Compound 24: 3.6%).

[3] = test system: Rabbit synoviocytes HIG-82; test: Inhibition assay for proliferation of rabbit synoviocyte; type: cell-based; settings: Oryctolagus cuniculus, 72 h; HIG-82, 3 days, Alamar Blue
[4] = test system: allogeneic mixed lymphocyte reaction; test: Allogeneic mixed lymphocyte reaction; type: cell-based, mouse; settings: Mus musculus, Lymphocyte; C57BL/6N spleen stimulator cells, BALB/c lymph node responder cells, 86 hours, BrdU
Procedure, shortened: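 Stimulators were C57BL/6N female spleen cells and responders BALB/c female peripheral lymph node mononuclear cells (mice 8-10 weeks old). Cells suspended at 2×10^6 cells/mL in RPMI 1640 with 10% FBS and antibiotics.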

[5] = test system: Daudi cells; test: Proliferation inhibitory activity on hematologic neoplasm cells, Daudi; type: cell-based; settings: Homo sapiens, Daudi, 72 h; 3 days, Alamar Blue
[6] = test system: Jurkat cells; test: Proliferation inhibitory activity on hematologic neoplasm cells, Jurkat; type: cell-based; settings: Homo sapiens, Jurkat, 72 h; 3 days, Alamar Blue
[7] = test system: HL 60 cells; test: Proliferation inhibitory activity on hematologic neoplasm cells, HL60; type: cell-based; settings: Homo sapiens, HL-60, 72 h; 3 days, Alamar Blue
[8] = test system: THP-1 cells; test: Proliferation inhibitory activity on hematologic neoplasm cells, THP-1; type: cell-based; settings: Homo sapiens, THP-1, 72 h; 3 days, Alamar Blue
[9] = test system: Daudi cells; test: Therapeutic action on human B lymphoma xenografted model; type: in vivo, mouse; settings: NOD/SCID mice, Daudi subcutaneous, 400 mg/kg oral after day 20
Method: Daudi cells (1×10^7 cells/mL) cultured in RPMI 1640 medium (containing 10% fetal bovine serum, 10 mM HEPES, 1 mM pyruvic acid, 4.5 g/L glucose, 100 units/mL penicillin, and 0.1 mg/mL streptomycin) were implanted subcutaneously in the chests of 8 week-old NOD/SCID mice. After day 20 when the tumor had grown to the volume of about 800 mm^3, Compound 4 (400 mg/kg) was administered orally.

[10] = Toxicologic test for single oral administration; settings: rat, in vivo, po, 1200 mg/kg
[11] = test system: Salmonella typhimurium TA98, TA100, TA1535, TA1537 and Escherichia coli WP2uvrA; test: Ames test; type: cell-based; settings: preincubation method, with or without S-9, up to 5000 μg/flat plate
Method: Using 5 strains of Salmonella typhimurium TA98, TA100, TA1535, TA1537 and Escherichia coli WP2uvrA, the test substances (Compound 4, Compound 19, Compound 22 and Compound 24) were tested for their mutagenesis according to a preincubation method.

## FC(F)c1nc2ccccc2n1-c1nc(N2CCOCC2)nc(N2CCOCC2)n1 [Compound 4, 2-(2-Difluoromethylbenzimidazol-1-yl)-4,6-dimorpholino-1,3,5-triazine]
[1]; LPS 100 μg/mL, read-out: Inhibition of LPS response
  IC50: 1 to 100 nM
[1]; anti-mouse IgM antibody 100 μg/mL, read-out: Inhibition of Anti-IgM antibody response
  IC50: 1 to 100 nM
[1]; concanavalin A 3 μg/mL, read-out: Inhibition of Con A response
  IC50: 1 to 100 nM
[2]; CD4 positive, 14.4% without test substance
  proportion of the cells which expressed CD40L: 4.9%
[2]; 28.8% without test substance
  proportion of CD4-positive cells which expressed CD69: 18.8%
[2]; 50.9% without test substance
  proportion of CD4-negative cells which expressed CD69: 17.7%
[3]
  IC50: 953 nM
[4]
  IC50: 218 nM
[5]
  IC50: 105 nM
[6]
  IC50: 1950 nM
[7]
  IC50: 1120 nM
[8]
  IC50: 511 nM
[9]
  increase in tumor volume: inhibited
[10]
  death after single oral dose: no examples of death were recognized
[11]
  mutagenesis (colony number of reverse mutation): negative

Source: patent US8338414B2, “Immunosuppressive agent and anti-tumor agent comprising heterocyclic compound as active ingredient” (Zenyaku Kogyo KabushikiKaisha, priority 2005, dated 2012)
